Source: paper PMC9918900, “New Succinimide–Thiazolidinedione Hybrids as Multitarget Antidiabetic Agents: Design, Synthesis, Bioevaluation, and Molecular Modelling Studies” (Molecules, 2023)
Like-named read-outs stand apart in the source and are kept apart here.

What was measured:
α-glucosidase = assay: in vitro α-glucosidase inhibitory activity; type: biochemical, Homo sapiens
Protocol: The inhibitory analyses for α-glucosidase were carried out in accordance with the protocols reported in the literature; the inhibitory activities of the synthesized hybrids were calculated utilizing screening assay tools.

α-amylase = biological target: T1, α-amylase (Homo sapiens, UniProt P04746); assay: in vitro α-amylase inhibitory activity; type: biochemical
T1 sequence (P04746 16-511): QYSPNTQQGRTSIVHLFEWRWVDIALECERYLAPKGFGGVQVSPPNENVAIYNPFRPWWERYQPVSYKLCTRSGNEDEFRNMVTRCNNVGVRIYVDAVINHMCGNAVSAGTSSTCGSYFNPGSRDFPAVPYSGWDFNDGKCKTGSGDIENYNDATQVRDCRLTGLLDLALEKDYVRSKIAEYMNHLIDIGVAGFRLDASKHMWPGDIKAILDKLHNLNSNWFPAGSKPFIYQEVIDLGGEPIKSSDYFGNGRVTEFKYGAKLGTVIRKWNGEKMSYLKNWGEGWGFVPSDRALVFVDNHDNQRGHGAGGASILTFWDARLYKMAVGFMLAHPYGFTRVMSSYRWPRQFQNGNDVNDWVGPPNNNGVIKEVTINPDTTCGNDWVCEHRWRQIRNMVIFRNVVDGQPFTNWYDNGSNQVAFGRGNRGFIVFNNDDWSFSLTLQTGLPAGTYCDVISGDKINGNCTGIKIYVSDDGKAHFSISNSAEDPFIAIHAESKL
Protocol: The test samples were added in alpha-amylase solution. The enzyme solution was prepared with enzyme and buffer solution. The mixture of the samples and enzyme was then incubated. Then, starch and dinitrosalicylic acid solution was added. The same was performed for both test compounds and the standard drug. […] The percent alpha-amylase inhibition activity and its IC50 values were calculated and confirmed as per the previous procedure.

PTP1B = biological target: T2, PTP1B (Homo sapiens, UniProt P18031); assay: PTP1B assay (pNPP substrate); type: biochemical
T2 sequence (P18031 1-435): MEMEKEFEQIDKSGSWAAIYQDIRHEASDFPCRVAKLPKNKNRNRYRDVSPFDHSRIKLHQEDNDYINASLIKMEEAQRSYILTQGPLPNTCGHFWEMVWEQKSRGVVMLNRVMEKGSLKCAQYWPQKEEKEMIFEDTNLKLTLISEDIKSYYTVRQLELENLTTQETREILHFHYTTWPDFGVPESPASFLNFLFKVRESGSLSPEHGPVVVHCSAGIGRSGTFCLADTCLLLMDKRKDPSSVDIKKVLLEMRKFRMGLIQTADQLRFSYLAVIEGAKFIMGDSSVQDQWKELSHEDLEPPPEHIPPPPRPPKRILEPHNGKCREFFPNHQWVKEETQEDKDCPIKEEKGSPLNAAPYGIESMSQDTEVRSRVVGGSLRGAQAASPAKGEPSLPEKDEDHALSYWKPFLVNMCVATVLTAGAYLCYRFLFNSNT
Protocol: The aforementioned newly synthesize succinimides and thiazolidinedione hybrids were tested against the PTP1B enzyme to determine their ability to inhibit the negative regulation of insulin as well as leptin signaling. The PTP1B test was performed with a small modification to the method described in the publications. The enzyme efficiency was evaluated using […] (pNPP) as a substrate. For the buffer solution, 0.5 millimolar (mM) of ethylene diamine tetraacetic acid (EDTA), 1 mM of mercaptoethanol, 0.55 mM of dithiothreitol (DTT), and 12.49 mM of TRIS hydrochloride (ph = 7.4) were used. The experiment was carried out by mixing 10.0 μL of the test compound solutions with 20.0 μL of the enzyme (1 μg/mL), subsequently injecting 40.0 μL of 4.0 mM 4-nitrophenyl dihydrogen phosphate in 130.5 μL of the prescribed buffer in a microplate well at 37 °C for 10 min. pNP was formed during the enzymatic process, which was monitored for 30 min. The IC50 values were derived using a non-linear regression analysis of the fraction of the product generated vs. the log of the inhibitory concentration.

human DPP-4 enzyme = biological target: T3, human DPP-4 enzyme (Homo sapiens, UniProt P27487); assay: DPP-4 activity bioassay; type: biochemical; settings: for inhibition at 31.25 µM / inhibition at 62.5 µM / inhibition at 125 µM / inhibition at 250 µM: read-out: DPP4 (inhibition) (converted); for inhibition at 500 µM: read-out: DPP4 (inhibition); for IC50: read-out: IC50 DPP4
T3 construct: purchased
T3 sequence (P27487 whole entry): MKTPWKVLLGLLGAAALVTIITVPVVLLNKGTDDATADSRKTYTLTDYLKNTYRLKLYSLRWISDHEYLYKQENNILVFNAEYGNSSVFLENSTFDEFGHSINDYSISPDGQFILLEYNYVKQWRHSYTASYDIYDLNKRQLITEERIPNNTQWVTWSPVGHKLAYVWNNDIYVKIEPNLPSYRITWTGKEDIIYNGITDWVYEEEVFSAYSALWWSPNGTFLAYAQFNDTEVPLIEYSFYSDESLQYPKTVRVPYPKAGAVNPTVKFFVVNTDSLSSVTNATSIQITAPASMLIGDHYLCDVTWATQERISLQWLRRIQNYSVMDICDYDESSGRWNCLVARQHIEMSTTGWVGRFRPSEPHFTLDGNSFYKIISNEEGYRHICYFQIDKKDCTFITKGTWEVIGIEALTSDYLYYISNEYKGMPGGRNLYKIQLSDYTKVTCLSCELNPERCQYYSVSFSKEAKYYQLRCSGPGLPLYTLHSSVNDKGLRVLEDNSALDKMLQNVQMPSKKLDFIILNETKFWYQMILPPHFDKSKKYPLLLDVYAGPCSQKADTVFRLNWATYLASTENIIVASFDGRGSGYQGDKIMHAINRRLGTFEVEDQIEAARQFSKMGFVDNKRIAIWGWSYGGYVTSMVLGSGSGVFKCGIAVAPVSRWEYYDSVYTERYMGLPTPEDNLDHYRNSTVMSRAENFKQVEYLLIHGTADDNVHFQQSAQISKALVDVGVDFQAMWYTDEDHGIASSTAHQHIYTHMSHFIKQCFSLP
Protocol: All succinimides and thiazolidinedione hybrids were tested for DPP-4 inhibitory effects on a human DPP-4 enzyme using the methodology published before. The DPP-4 kit was used to measure the inhibition. L-thiazolidine (P32/98) was included as a reference. The hybrids and DPP-4 enzyme were both adulterated 1/50 in the assay buffer (PH = 7.4, 25 mM Tris). Following that, a microplate well was filled with 5 μL of assay buffer, 3 μL of enzyme solution, and 2 μL of adequately diluted test chemical solutions. After a 12-min incubation period at 37.5 °C, a diluted substrate solution of 25 μL was added into the solution. A multi-mode reader was used to assess the fluorescence. […] PRISM5 was used to calculate the IC50 values and compare the inhibition ratio to the control without the inhibitor.

[1] = 31.25 µM, read-out: % α-Amylase Inhibition (converted)
[2] = 62.5 µM, read-out: % α-Amylase Inhibition (converted)
[3] = 125 µM, read-out: % α-Amylase Inhibition (converted)
[4] = 250 µM, read-out: % α-Amylase Inhibition (converted)
[5] = 500 µM, read-out: % α-Amylase Inhibition
[6] = read-out: % α-Amylase Inhibition

Compound	IC50 (α-glucosidase) [µM]	% α-Glucosidase Inhibition (α-glucosidase; 31.25 µM) [%]	% α-Glucosidase Inhibition (α-glucosidase; 62.5 µM) [%]	% α-Glucosidase Inhibition (α-glucosidase; 125 µM) [%]	% α-Glucosidase Inhibition (α-glucosidase; 250 µM) [%]	% α-Glucosidase Inhibition (α-glucosidase; 500 µM) [%]	IC50 (α-amylase) [µM]	inhibition at 31.25 µM (α-amylase; [1]) [%]	inhibition at 62.5 µM (α-amylase; [2]) [%]	inhibition at 125 µM (α-amylase; [3]) [%]	inhibition at 250 µM (α-amylase; [4]) [%]	inhibition at 500 µM (α-amylase; [5]) [%]	IC50 (PTP1B) [µM]	inhibition at 31.25 µM (PTP1B) [%]	inhibition at 62.5 µM (PTP1B) [%]	inhibition at 125 µM (PTP1B) [%]	inhibition at 250 µM (PTP1B) [%]	inhibition at 500 µM (PTP1B) [%]	inhibition at 31.25 µM (human DPP-4 enzyme) [%]	inhibition at 62.5 µM (human DPP-4 enzyme) [%]	also measured
CC(C)(/C=C1\SC(=O)N(C(=O)CN2CCOCC2)C1=O)[C@@H]1CC(=O)NC1=O [10a]	16.5	54.56 ± 1.73	65.44 ± 0.58	72.93 ± 0.67	75.58 ± 0.63	79.49 ± 0.6	21.9	54.6	57.5	72.8	77.6	82.61 ± 0.77	12	62.9	69.2	75.1	82.6	88.61 ± 0.43	67.5	72.5	inhibition at 125 µM (human DPP-4 enzyme): 77.2%; inhibition at 250 µM (human DPP-4 enzyme): 82.5%; inhibition at 500 µM (human DPP-4 enzyme): 87.45 ± 0.59%; IC50 (human DPP-4 enzyme): 5.38 µM
C[C@H]1O[C@H](O[C@H]2[C@H](O)[C@@H](O)[C@@H](O[C@H]3[C@H](O)[C@@H](O)C(O)O[C@@H]3CO)O[C@@H]2CO)[C@H](O)[C@@H](O)[C@@H]1N[C@H]1C=C(CO)[C@@H](O)[C@H](O)[C@H]1O (some centres unmarked) [Acarbose, acarbose, reference compound]		71.22 ± 0.47	76.44 ± 0.28	80.90 ± 1.11		94.40 ± 0.03															inhibition at 31.25 µM (α-amylase; [6]): 70.8%; inhibition at 62.5 µM (α-amylase; [6]): 75.4%; inhibition at 125 µM (α-amylase; [6]): 80.6%; inhibition at 250 µM (α-amylase; [6]): 86.5%; inhibition at 500 µM (α-amylase; [6]): 93.1 ± 1.04%
C[C@H]1[C@H](C)CC[C@]2(C(=O)O)CC[C@]3(C)C(=CC[C@@H]4[C@@]5(C)CC[C@H](O)C(C)(C)[C@@H]5CC[C@]43C)[C@H]12 [Ursolic acid, ursolic acid, reference compound]														71.8	76.4	81.6	87.5	94.1 ± 1.04			

Now from value to compound, other results behind:

IC50 (α-glucosidase) [µM]	% α-Glucosidase Inhibition (α-glucosidase; 31.25 µM) [%]	% α-Glucosidase Inhibition (α-glucosidase; 62.5 µM) [%]	% α-Glucosidase Inhibition (α-glucosidase; 125 µM) [%]	% α-Glucosidase Inhibition (α-glucosidase; 250 µM) [%]	% α-Glucosidase Inhibition (α-glucosidase; 500 µM) [%]	IC50 (α-amylase) [µM]	inhibition at 31.25 µM (α-amylase; [1]) [%]	inhibition at 62.5 µM (α-amylase; [2]) [%]	inhibition at 125 µM (α-amylase; [3]) [%]	inhibition at 250 µM (α-amylase; [4]) [%]	inhibition at 500 µM (α-amylase; [5]) [%]	IC50 (PTP1B) [µM]	inhibition at 31.25 µM (PTP1B) [%]	inhibition at 62.5 µM (PTP1B) [%]	inhibition at 125 µM (PTP1B) [%]	inhibition at 250 µM (PTP1B) [%]	inhibition at 500 µM (PTP1B) [%]	inhibition at 31.25 µM (human DPP-4 enzyme) [%]	inhibition at 62.5 µM (human DPP-4 enzyme) [%]	Compound	also measured
27.4	51.72 ± 0.66	57.68 ± 0.49	70.60 ± 0.46	75.62 ± 0.40	79.48 ± 0.74	21.2	48.5	65.5	70.5	74.7	79.37 ± 0.69	16.8	57.2	65.8	72.8	77.1	85.3 ± 2.87	54.3	62.7	CN1C(=O)C[C@@H](C(C)(C)/C=C2\SC(=O)N(C(=O)CN3CCOCC3)C2=O)C1=O [10b]	inhibition at 125 µM (human DPP-4 enzyme): 69.4%; inhibition at 250 µM (human DPP-4 enzyme): 75.8%; inhibition at 500 µM (human DPP-4 enzyme): 81.3 ± 1.42%; IC50 (human DPP-4 enzyme): 20.5 µM
25.6	62.72 ± 1.01	65.08 ± 0.47	71.42 ± 0.43	76.58 ± 1.12	81.53 ± 0.71	28.3	62.4	67.6	74.3	81.7	88.6 ± 1.12	19	53.5	63.4	69.3	73.4	79.4 ± 1.04	57.4	62.6	CC(C)(/C=C1\SC(=O)N(C(=O)CN2CCOCC2)C1=O)[C@@H]1CC(=O)N(c2ccccc2)C1=O [10c]	inhibition at 125 µM (human DPP-4 enzyme): 67.4%; inhibition at 250 µM (human DPP-4 enzyme): 72.6%; inhibition at 500 µM (human DPP-4 enzyme): 77.4 ± 1.51%; IC50 (human DPP-4 enzyme): 12.9 µM
13.2	52.58 ± 0.63	74.94 ± 1.13	79.84 ± 0.30	81.08 ± 0.47	86.44 ± 0.58	9.66	73.4	78.2	82.5	88.6	92.7 ± 1.3	19.5	56.4	63.5	67.2	75.8	83.51 ± 0.54	61.3	67.3	COc1ccc(N2C(=O)C[C@@H](C(C)(C)/C=C3\SC(=O)N(C(=O)CN4CCOCC4)C3=O)C2=O)cc1 [10e]	inhibition at 125 µM (human DPP-4 enzyme): 74.5%; inhibition at 250 µM (human DPP-4 enzyme): 82.5%; inhibition at 500 µM (human DPP-4 enzyme): 88.5 ± 2.06%; IC50 (human DPP-4 enzyme): 14.7 µM
